Experimental data taken from patent publication US6784172B2, “Processes for preparation of cyclopenta[b][1,4]diazepino[6,7,1-hi]indoles and derivatives” (Wyeth, priority 2000, dated 2004).

c1cc2c3c(c1)c1c(n3CCNC2)CCC1 [Example 1, 1,2,3,4,9,10-Hexahydro-8H-cyclopenta[b][4,1]diazepino[6,7,1-hi]indole]
melting point: 66 to 68 °C

CC(=O)N1CCN2c3c(cccc3C3CCCC32)C1 (racemic) [Example 3, 3-Acetyl-1,2,3,4,8,9,10,10a-octahydro-7bH-cyclopenta[b][1,4]diazepino[6,7,1-hi]indole]
melting point: 111 to 113 °C
